Reference: patent publication US20240174634A1, “Aldehyde Dehydrogenase Inhibitors and Their Therapeutic Use” (priority 2020, published 2024)

Experiments:
ALDH1A3 [1] = biological target: T1, ALDH1A3 (Homo sapiens, UniProt P47895); test: ALDH1A3 cellular assay (ALDEFLUOR) in WM266.4 melanoma cells; assay type: cell-based; settings: WM266.4 cells; 60 min incubation; percentage of ALDH-positive cells
T1 sequence (P47895 1-512): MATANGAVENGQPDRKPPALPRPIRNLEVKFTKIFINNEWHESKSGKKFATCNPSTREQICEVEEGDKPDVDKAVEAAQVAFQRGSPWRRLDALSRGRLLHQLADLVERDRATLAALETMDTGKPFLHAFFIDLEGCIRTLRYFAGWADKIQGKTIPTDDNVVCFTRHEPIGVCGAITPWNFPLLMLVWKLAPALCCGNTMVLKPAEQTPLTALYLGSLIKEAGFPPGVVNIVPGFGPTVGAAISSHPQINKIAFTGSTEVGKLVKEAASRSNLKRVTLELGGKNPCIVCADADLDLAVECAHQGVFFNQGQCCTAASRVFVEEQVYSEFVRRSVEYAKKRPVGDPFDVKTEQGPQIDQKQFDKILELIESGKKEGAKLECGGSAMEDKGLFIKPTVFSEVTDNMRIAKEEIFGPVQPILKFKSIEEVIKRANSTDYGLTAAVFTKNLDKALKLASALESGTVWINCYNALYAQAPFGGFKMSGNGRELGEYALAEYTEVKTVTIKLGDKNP
Description: Materials: WM266.4 cells were procured from ATCC. (WM266-4 is a metastatic human melanoma cell line.) The ALDEFLUOR™ Assay kit (cat. no. 01700) and Aldefluor buffer (cat. no. 01702) were procured from StemCell Technologies. Dulbecco's Modified Eagle Medium (DMEM), FluoroBrite DMEM, Glutamax and Hoechst 33342 were purchased from ThermoFisher. Verapamil was obtained from Fluorochem. FBS was obtained from Sigma. Echo Qualified 384-well low-dead-volume microplate and Echo Qualified 384-well polypropylene microplate were purchased from Labcyte, and the Microclear black sterile polystyrene microplate from Greiner Bio-One.
Method: Intracellular inhibition of ALDH1A3 was assessed using the ALDEFLUOR™ Assay kit. The activated ALDEFLUOR™ reagent, BODIPY-aminoacetaldehyde (BAAA), is a fluorescent non-toxic substrate for ALDH enzymes, which freely diffuses into intact and viable cells. In the presence of ALDH enzyme activity, BAAA is converted into BODIPY-aminoacetate (BAA), which is retained inside the cells. The amount of fluorescent reaction product is proportional to the ALDH activity in the cells and is measured using an imaging cytometer. Active efflux of the reaction product is inhibited by an efflux inhibitor (Verapamil) in the ALDEFLUOR™ Assay Buffer.
A frozen vial of cells was recovered into a T225 flask containing DMEM, high glucose, 10% FBS, 1% glutamax, 1% HEPES. The following day, media was changed and cells were ready for assay from 72 hours after recovery. Cells were transferred into FluoroBrite DMEM (plus 10% FBS, 1% glutamax and 1% HEPES) and diluted to 2.5×10^5 cells/mL. 30 μL of cells were added to each well to give 7500 cells/well and then incubated overnight at 37° C., 5% CO2. After overnight incubation, the media was aspirated and replaced by 20 μL substrate/Hoechst buffer solution. Each plate requires 9 mL of solution comprising, 9 mL ALDEFLUOR assay buffer, 18 μL BAAA substrate (final concentration 500 nM), 4.5 μL Hoechst 33342 (final concentration 5 μg/mL) and 4.5 μL Verapamil (final concentration 50 μM). Compounds were prepared for dosing using the Echo acoustic dispenser by aliquoting into a source plate and dosed directly onto the cell assay plate to give a 10 point dose response per compound ranging from 10 μM to 0.0005 μM final concentration in 3-fold dilution steps. Plates were then incubated for 60 minutes at 37° C., 5% CO2. The buffer was then aspirated and cells washed twice in ice-cold PBS. Plates were kept on ice and 30 μL of cold Aldefluor buffer with 50 μM verapamil dispensed per well. The plates were then imaged using the CellInsight fluorescent microscope. Hoechst fluorescence in the 405 nm channel indicated the nuclear area and this was used to define nuclei and then the surrounding cellular area. Fluorescence in the 488 nm channel of the defined cellular area indicates ALDH1A3 activity. The percentage of cells positive for ALDH activity was plotted versus compound concentration to generate EC50 values using curve fitting parameters defined in Dotmatics software.

ALDH1A3 [2] = biological target: T1, ALDH1A3; test: Primary biochemical assay, NAD(P)H-Glo Detection System; design: His-tag; made in house; host or cells: E. coli Rosetta (DE3); settings: 30 min pre-incubation, propionaldehyde and NAD at Km
Description: Cloning: Open reading frames corresponding to the protein coding sequences of full length human ALDH1A1 (Uniprot ID P00352), ALDH1A2 (094788) and ALDH1A3 (P47895) were polymerase chain reaction (PCR) amplified from human cDNA and inserted into the multi-cloning sites of the commercially available (Novagen) E. coli expression vectors pET47b (ALDH1A1, EcoRI restriction site; ALDH1A2, BamHI and EcoRI sites) or pET28a (ALDH1A3, NdeI and BamHI sites), using standard molecular genetic techniques. Recombinant DNA products were sequence verified prior to use in expression studies.
Expression: Expression constructs were transformed into the E. coli strain Rosetta (DE3) (Merck) and individual colonies used to inoculate 10 mL lysogen broth (LB) medium supplemented with kanamycin and chloramphenicol at 50 μg/mL and 34 μg/mL, respectively. Cultures were grown to saturation overnight at 37° C., prior to being used to sub-inoculate fresh 1 L LB medium cultures (plus antibiotics, as before). 1 L cultures were grown at 37° C., 200 rpm, throughout the day until the optical density at 600 nm (OD600) reached ˜0.8, at which point growth temperature was reduced to 18° C. and 1 mM isopropyl β-d-1-thiogalacto pyranoside (IPTG) added to induce protein expression.
Cultures were left overnight (at least 16 h) under these conditions and the following day harvested by centrifugation (4000 G, 10 minutes). Culture supernatant was discarded and cell pellets stored at −80° C. until further processing.
Purification: Cell pellets were thawed on ice, re-suspended in Ni Affinity Buffer A (20 mM HEPES pH 7.5, 300 mM NaCl, 20 mM imidazole, 1 mM tris(2-carboxyethyl)phosphine (TCEP)) with protease inhibitors (cOmplete Ultra protease inhibitor, Roche), and lysed by sonication. Lysates were clarified by centrifugation at 18,000 G, 4° C., for 40 minutes, and loaded directly onto a pre-equilibrated (Buffer A) 5 mL HisTrap Fast Flow column (GE Healthcare) by way of an AKTA Fast Protein Liquid Chromatography (FPLC) system. The column was sequentially treated with 6 column volumes (CV) 100% Buffer A, 8 CV of 90% Buffer A:10% Buffer B (20 mM 4-(2-hydroxyethyl)-1-piperazineethanesulfonic acid (HEPES) pH 7.5, 300 mM NaCl, 500 mM imidazole, 1 mM TCEP) and finally a linear gradient from 10-70% Buffer B over 8 CV to elute recombinant His-tagged protein. Relevant fractions (as measured by 280 nm absorbance) collected during elution were pooled and subjected to further purification by size exclusion chromatography (Superdex 200 26/600, GE Healthcare, running buffer 20 mM 2-(carbamoylmethylamino)ethanesulfonic acid (ACES) pH 7.5, 1 mM TCEP). Relevant fractions from this step were pooled, aliquoted, and stored at −80° C. until required for compound profiling assays.
Materials: ALDH2 was purchased from Abnova. Tris(hydroxymethyl)aminomethane (Tris) was purchased from MP Biomedicals. TCEP, ethylenediaminetetraacetic acid (EDTA), propionaldehyde, DMSO and Tween-20 were purchased from Sigma. Nicotinamide adenine dinucleotide (NAD) was obtained from Abcam. The NAD(P)H-Glo™ Detection System was purchased from Promega. White, non-binding surface, 384 well plates were supplied by Corning (#3574).
Method: Inhibition of ALDH1A3 was assessed using the NAD(P)H-Glo™ Detection System (Cat. No. G9062) from Promega. This assay detects the production of NADH from NAD by ALDH1A3 via the coupled enzymatic conversion of a proluciferin reductase substrate to generate a luminescent signal. Inhibition of ALDH1A3 by small molecule inhibitors will result in reduction or abrogation of luminescence signal increase above background. Inhibition of ALDH1A1, ALDH1A2 and ALDH2 (selectivity assays) were assessed using the same assay.
Compounds were dosed into Corning 384 well assay plates using an Echo acoustic dispenser to give 10 point curves in a 3-fold dilution series. Compounds were dispensed from a 20 mM DMSO stock and initially screened at a top concentration of 20 μM (ALDH1A3) or 250 μM (ALDH1A1, ALDH1A2 & ALDH2). […]

For `O=C1CCc2cc(NC(=O)c3ncccc3-c3cccc(F)c3)ccc2N1` [ALDHI-1020, 3-(3-fluorophenyl)-N-(2-oxo-3,4-dihydro-1H-quinolin-6-yl)pyridine-2-carboxamide], the IC50 (ALDH1A3 [1]) was 1 to 10 µM and the IC50 (ALDH1A3 [2]) was 1 to 10 µM.
